The subject of assay [1] is bitterness of T2R8 specific agonist. The assay can be described thus: Taste test with T2R8 specific agonist comparing a control bitter blocker and compound of interest. Type of assay: in vivo, human. The following applies: antagonist conc. 1. As to the method: To determine the effectiveness of an individual antagonist, taste tests were performed with a T2R8 specific agonist, the compound of interest and a reference bitter blocker. We have previously described a good hT2R8 antagonist that was proven to have taste effect, Example 4-8 from U.S. Provisional Appl. Ser. No. 60/957,129, filed Aug. 21, 2007: N-(1-((3,5-dimethylisoxazol-4-yl)methyl)-1H-pyrazol-4-yl)benzo[d][1,3]dioxole-5-carboxamide.

Assay [2] has as its system bitter taste of instant coffee. The assay can be described thus: 2-alternative forced choice taste test, instant coffee with hT2R8 antagonists. Type of assay: in vivo, human. Conditions: antagonist 5 μM. As to the method:
Taste tests were performed with hT2R8 antagonists in instant coffee using a 2-alternative forced choice method with a taste panel of 15-20 panelists. Coffee samples with the antagonists were given to the taste panelists together with the same sample without antagonists, the panelists were asked to identify the bitterer sample within the pair.

In assay [3] the target is T1, hT2R8 (Homo sapiens (Human), UniProt Q9NYW2). Description: hT2R8 antagonist high-throughput FLIPR assay, stable cell line with G16g44, agonist andrographolide. Type of assay: cell-based. The procedure, abridged: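 Antagonist screen: compounds co-applied with agonist andrographolide at 200 μM, a dose giving 70–80% of maximal hT2R8 activation. Fluorescence measured by FLIPR in a stable HEK293 line expressing both hT2R8 and the promiscuous G16g44 protein.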

Assay [4] deals with T1, hT2R8. The following applies: compared with taster hT2R43-W35 and hT2R44-W35 alleles, FIG. 6. The text has this:
FIG. 6 is a plot of receptor activity as a function of log of the saccharin concentration.
Pronin et al., Curr. Biol. 17: 1403-8 (2007). Five individuals with the “taster” alleles (hT2R43-W35 and/or hT2R44-W35) and five with the “non-taster” alleles (hT2R43-S35 and hT2R44-R35) were selected based on genotyping analysis. Each subject was presented with 6 pairs of solutions and asked to determine which of the samples in a pair tasted more bitter.

The term pIC50 denotes −log10 of the IC50, conventionally taken in molar units. The IC50 is the concentration that inhibits the measured activity by half.

pIC50: −log10 of the molar value. Read-outs that look alike come from different tables or passages of the source.

T1 sequence (Q9NYW2 whole entry): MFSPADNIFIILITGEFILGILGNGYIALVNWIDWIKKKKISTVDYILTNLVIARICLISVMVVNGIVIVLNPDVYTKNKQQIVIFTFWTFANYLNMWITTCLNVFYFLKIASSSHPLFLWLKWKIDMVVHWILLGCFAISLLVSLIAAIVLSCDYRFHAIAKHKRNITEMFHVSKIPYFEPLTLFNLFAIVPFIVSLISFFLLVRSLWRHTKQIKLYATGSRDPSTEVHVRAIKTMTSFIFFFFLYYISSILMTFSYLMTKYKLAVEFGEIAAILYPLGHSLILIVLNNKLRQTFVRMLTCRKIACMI

Regarding `Cc1noc(C)c1Cn1cc(N2C(=O)CN(Cc3cccc(O)c3)C2=O)cn1` [Example 10-10, 3-(1-((3,5-dimethylisoxazol-4-yl)methyl)-1H-pyrazol-4-yl)-1-(3-hydroxybenzyl)imidazolidine-2,4-dione], the “Selected as more bitter: +other” value in assay [1] (sample with 10-10) is 2. Moreover, in assay [1] (sample with control blocker 10-8), the “Selected as more bitter: 10-8” value came out at 14. In assay [2], the “Selected as bitterer: With antagonists” value came out at 2 and the “Selected as bitterer: Without antagonists” value is 14. In addition, the pIC50 in assay [3] (Table 6, read-out: HTS assay IC50) was 7.40 to 7.70. Moreover, in assay [3] (table after Example 10-97, read-out: hT2R8 IC50), the negative-log IC50 (pIC50) was 7.59. The IC50 in assay [3] (unit uM, read-out: IC50 on hT2R08 bitter receptor) was 0.035 µM.

In the case of `O=C1NS(=O)(=O)c2ccccc21` [saccharin], the “responsiveness of hT2R8 to saccharin” value in assay [4] was “less responsive”.

For the origin of these results see patent US9247759B2, “Identification of human T2R receptors that respond to bitter compounds that elicit the bitter taste in compositions, and the use thereof in assays to identify compounds that inhibit (block) bitter taste in compositions and use thereof” (SENOMYX, INC., priority 2007, dated 2016).
